Source: US10759826B2, “15β-substituted estrone derivatives as selective inhibitors of 17β-hydroxysteroid-dehydrogenases, method of preparation and use thereof” (USTAV ORGANICKE CHEMIE A BIOCHEMIE AV CR, V.V.I., priority 2016, dated 2020)

How the values were obtained:
[1] = test system: U2OS cells; assay: Cell viability (ATP) of unmodified U2OS cells, parallel to reporter assay; assay type: cell-based, human; settings: Homo sapiens
Description: To separate the antagonist activity of test compounds from the cytotoxic effect on U2OS cells (cell line derived from osteosarcoma), an experiment for determination of cell viability was performed in parallel with the reporter assay. Original, genetically unmodified U2OS cells were grown under the same conditions as the reporter cells. These cells were further treated and incubated with the compounds in a completely identical manner and for the same time as cells in the reporter assay. At the end of the experiment, the amount of ATP was determined using BriteLite luciferase homogeneous assay as a measure of cell viability. The data were then processed together with data from the reporter assays.

[2] = target: luciferase (Photinus pyralis, UniProt P08659); assay: Luciferase activity in U2OS cell line constitutively expressing luciferase gene; assay type: cell-based; settings: read-out: Luciferase activity IC50
Description: In order to distinguish between the specific, steroid hormone response elements-driven regulation of the luciferase expression and the possible effects of test compounds on the luciferase activity, compounds were tested in parallel experiment on a U2OS cell line constitutively expressing luciferase gene.
Luciferase activity was determined by a commercial kit Britelite plus a luciferase reporter gene assay reagent (Perkin Elmer, USA), 24 h after addition of compounds to cells. The intensity of luminescence was measured on an Envision multimode spectrophotometer (PerkinElmer).

[3] = target: T1, 17βHSD5 (Homo sapiens, UniProt P42330); settings: literature; cited from earlier work
T1 sequence (P42330 1-323): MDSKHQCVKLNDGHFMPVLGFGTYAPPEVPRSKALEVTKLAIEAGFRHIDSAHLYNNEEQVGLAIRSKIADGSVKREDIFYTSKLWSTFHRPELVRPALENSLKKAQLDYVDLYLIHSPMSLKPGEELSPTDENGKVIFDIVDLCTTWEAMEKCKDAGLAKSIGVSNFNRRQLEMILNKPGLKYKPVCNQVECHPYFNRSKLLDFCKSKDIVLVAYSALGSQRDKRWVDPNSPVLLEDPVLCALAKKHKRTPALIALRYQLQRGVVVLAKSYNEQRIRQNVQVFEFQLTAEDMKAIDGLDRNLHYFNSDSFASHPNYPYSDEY

[4] = test system: MRCS; assay: MTT cytotoxicity assay, MRC5 fibroblasts; assay type: cell-based; settings: Homo sapiens, Fibroblast, non-tumor fibroblasts
From the text: (§1) Compounds 5, 6, 7, 9, 14 and 15 were used for evaluation of antitumor activity. MTT cytotoxicity assay was used in vitro on cell lines derived from normal tissues and from tumors. Specifically, these were the K562 line (human myeloid leukemia), K562-Tax (human myeloid leukemia resistant to taxol and overexpressing PgP protein for multidrug resistance), CEM (T-lymphoblastic leukemia), CEM-DNR bulk (T-lymphoblastic leukemia resistant doxorubicin, lacking the expression of the target gene for inhibitors of topoisomerase II alpha), A549 line (human lung adenocarcinoma), HCT116p53 wt (human colon cancer), HCT116p53−/− (human colon cancer, mutant p53), U2OS line of human osteosarcoma and two fibroblast lines MRC5 and BJ as examples of non-tumor cells. Expression characteristics, profiles of susceptibility to classical antitumor drugs and methodology of the MTT cytotoxicity assay were repeatedly published (e.g. Noskova et al. Neoplasma 2002, 49, 418; S̆arek et. al. J. Med. Chem. 2003, 46, 25, 5402).

[5] = target: T2, human 17βHSD type 5 (Homo sapiens, UniProt P42330); assay: Inhibition of recombinant 17βHSD type 5, tritium-labeled substrate conversion; assay type: biochemical; settings: 1 μmol · l^−1 test substance
T2 construct: made in house; host or cells: bacteria (Escherichia coli); supernatant of the lysate
T2 sequence (P42330 1-323): T1 sequence (P42330 1-323)
Description: (§2) The inhibitory activity of the test substances was determined for individual isoenzymes from the 17βHSD family, specifically these were the types 1, 2, 3, 4, 5 and 7. Escherichia coli and mammalian cells expression systems were used for recombinant expression of individual isozymes of human 17βHSD. Only in the case of 17HSD5 the enzyme was partially purified and supernatant obtained by centrifugation of the bacterial lysate was used for testing. Systems expressing specific 17βHSD type were suspended in a reaction buffer and incubated with tritium-labeled substrates and respective cofactors at 37° C. in two parallel tests: the control arrangement (DMSO without the inhibitor) and the test arrangement (DMSO with the inhibitor). DMSO serves as a negative control in this case. After 20-30% of the substrate was converted by the activity of the enzyme to the product in a control test, both tests were terminated. Substrate and product from the test arrangement were isolated by SPE (solid phase extraction), and then separated by reverse phase HPLC. Substrate conversion was determined by integration of the signals of the substrate and product, and was expressed in %. For the purposes of the subsequent calculation of enzyme inhibition, the conversion of the control test was designated as 0% inhibition. All tests were performed in triplicates. IC50 values were subsequently determined by a standard method using the “One Ligand Binding” model of SigmaPlot kinetics module (Schustera et. al. J. Ster. Biochem. Mol. Biol. 2011, 125, 148; Möller et. al. Biioorg. Med. Chem. Lett. 2009, 19, 6740; Möller et. al. PLoS One, 2010, 5, 6, e10969).

[6] = target: T3, human 17βHSD1 (Homo sapiens, UniProt P14061); assay: 17βHSD inhibition in MCF-7 cells transfected with human 17βHSD1, E1 in supernatant; assay type: cell-based; parameters: expressed in transfected cells; host or cells: MCF-7; settings: 10 μmol·l^−1
T3 sequence (P14061 1-328): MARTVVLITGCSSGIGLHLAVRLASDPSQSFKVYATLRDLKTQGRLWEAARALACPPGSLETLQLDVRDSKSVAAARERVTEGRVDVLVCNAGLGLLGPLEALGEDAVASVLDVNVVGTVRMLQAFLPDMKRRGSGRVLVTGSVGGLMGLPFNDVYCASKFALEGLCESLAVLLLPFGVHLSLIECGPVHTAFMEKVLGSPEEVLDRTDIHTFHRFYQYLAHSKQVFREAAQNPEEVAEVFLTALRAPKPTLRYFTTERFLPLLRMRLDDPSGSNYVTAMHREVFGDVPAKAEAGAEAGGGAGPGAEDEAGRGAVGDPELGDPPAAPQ
Description: (§3) For this experiment, non-cytotoxic concentrations of estrone derivative (10 μmol·l^−1) were used. E1 levels were determined by an immuno-enzymatic assay.

[7] = test system: CEM-DNR-bulk; assay: MTT cytotoxicity assay, CEM-DNR-bulk; assay type: cell-based
From the text: as §1

[8] = test system: K562; assay: MTT cytotoxicity assay, K562; assay type: cell-based; settings: Homo sapiens
From the text: as §1

[9] = test system: A549; assay: MTT cytotoxicity assay, A549; assay type: cell-based; settings: Homo sapiens
From the text: as §1

[10] = test system: CEM; assay: MTT cytotoxicity assay, CEM; assay type: cell-based; settings: Homo sapiens, CCRF-CEM
From the text: as §1

[11] = target: T4, human 17βHSD type 1 (Homo sapiens, UniProt P14061); assay: Inhibition of recombinant 17βHSD type 1, tritium-labeled substrate conversion; assay type: biochemical; settings: for inhibition at 0.1 µM: 0.1 μmol · l^−1 test substance; for inhibition at 0.1 µM / inhibition at 1 µM: read-out: % of inhibition of human 17βHSD1; for inhibition at 1 µM: 1 μmol · l^−1 test substance; for IC50: read-out: 17βHSD1 IC50
T4 construct: made in house; expressing system suspended in buffer, not purified
T4 sequence (P14061 1-328): T3 sequence (P14061 1-328)
Description: as §2

[12] = test system: HCT116p53 wt; assay: MTT cytotoxicity assay, HCT116p53 wt; assay type: cell-based; settings: Homo sapiens
From the text: as §1

[13] = test system: HCT116p53-/-; assay: MTT cytotoxicity assay, HCT116p53-/-; assay type: cell-based; settings: Homo sapiens
From the text: as §1

[14] = test system: U2OS; assay: MTT cytotoxicity assay, U2OS; assay type: cell-based; settings: Homo sapiens
From the text: as §1

[15] = target: T3, human 17βHSD1; assay: 17βHSD inhibition in CHO cells transfected with human 17βHSD1, E1 in supernatant; assay type: cell-based; parameters: expressed in transfected cells; settings: 10 μmol·l^−1
Description: as §3

[16] = test system: BJ; assay: MTT cytotoxicity assay, BJ fibroblasts; assay type: cell-based; settings: Homo sapiens, non-tumor fibroblasts
From the text: as §1

[17] = test system: K562-Tax; assay: MTT cytotoxicity assay, K562-Tax; assay type: cell-based; settings: Homo sapiens
From the text: as §1

[18] = target: T5, estrogen receptor α (ERα) (Homo sapiens, UniProt P03372); assay: ERα luciferase reporter assay in U2OS cells; assay type: cell-based; settings: testing range 10 μmol·l^−1 to 1 nmol·l^−1
T5 construct: expressed in transfected cells
T5 sequence (P03372 1-595): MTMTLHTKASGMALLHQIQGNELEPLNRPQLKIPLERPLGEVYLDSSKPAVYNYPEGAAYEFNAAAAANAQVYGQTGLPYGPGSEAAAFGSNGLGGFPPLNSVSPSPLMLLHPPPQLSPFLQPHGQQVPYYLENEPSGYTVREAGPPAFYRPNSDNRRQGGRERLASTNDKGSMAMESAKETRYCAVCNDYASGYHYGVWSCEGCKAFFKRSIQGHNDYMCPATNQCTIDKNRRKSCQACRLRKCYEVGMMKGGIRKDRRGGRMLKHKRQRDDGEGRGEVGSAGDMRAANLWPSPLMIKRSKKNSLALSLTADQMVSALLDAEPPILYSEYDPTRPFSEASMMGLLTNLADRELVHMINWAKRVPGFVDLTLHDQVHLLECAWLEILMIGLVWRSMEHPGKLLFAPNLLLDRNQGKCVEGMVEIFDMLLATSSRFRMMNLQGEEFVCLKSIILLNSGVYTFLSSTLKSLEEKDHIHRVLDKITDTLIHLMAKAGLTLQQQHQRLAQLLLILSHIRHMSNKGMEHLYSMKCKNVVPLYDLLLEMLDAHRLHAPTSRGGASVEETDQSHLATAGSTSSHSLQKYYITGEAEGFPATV

Row | Compound | IC50 [4] | % of inhibition of human 17βHSD5 [5] | E1 in supernatant, MCF-7 ([6]; 8 hr.) | E1 in supernatant, MCF-7 ([6]; 24 hr.) | IC50 [7] | IC50 [8] | IC50 [9] | IC50 [10] | inhibition at 0.1 µM [11] | inhibition at 1 µM [11] | IC50 [11] | IC50 [12] | IC50 [13] | IC50 [14] | E1 in supernatant, CHO ([15]; 8 hr.) | E1 in supernatant, CHO ([15]; 24 hr.) | IC50 [16] | melting point | IC50 [17] | other results
1 | CC#C[C@]1(O)CC[C@H]2[C@@H]3CCC4=CC(=O)CCC4=C3[C@@H](c3ccc(N(C)C)cc3)C[C@@]21C [RU486, reference compound] |  |  |  |  |  |  |  |  |  |  |  |  |  |  |  |  |  |  |  | IC50 [1]: 47.7 µM; IC50 [2]: 17.9 µM
2 | 3-deoxyestradiol with C-17-dimethyl-spiro-δ-lactone |  |  |  |  |  |  |  |  |  |  |  |  |  |  |  |  |  |  |  | IC50 [3]: 0.0029 µM
3 | C[C@]12CC[C@@H]3c4ccc(O)cc4CC[C@H]3[C@@H]1[C@H](CCc1ccc(Cl)cc1)CC2=O [Compound 6, 15β-(4-Chlorophenethyl)-3-hydroxy-estra-1,3,5(10)-trien-17-one] | 21 µM | 90% | 4251 pg/mL | 3323 pg/mL | 24.6 µM | 26.9 µM | 35.8 µM | 16.3 µM | 90% | 97% | 0.009 µM | 29.3 µM | 30.8 µM | 27.9 µM | 4137 pg/mL | 1804 pg/mL | 28.8 µM | 168 °C | 13.2 µM | 
4 | COC(=O)c1ccc(CC[C@@H]2CC(=O)[C@@]3(C)CC[C@@H]4c5ccc(O)cc5CC[C@H]4[C@H]23)cc1 [Compound 7, Methyl 4-(2-(3-hydroxy-estra-1,3,5(10)-trien-17-on-15β-yl)ethyl)benzoate] | > 50 µM | 63% | 1921 pg/mL | 1839 pg/mL | 32.8 µM | > 50 µM | > 50 µM | 25.6 µM | 84% | 99% | 0.016 µM | > 50 µM | > 50 µM | > 50 µM | 2101 pg/mL | 1476 pg/mL | > 50 µM | 139 °C | 12.5 µM | ER antagonism in words [18]: ER antagonist
